Experimental data: the supplement of paper PMC10307832

Legend:
Test in all cases: relative viability (nuclei count vs DMSO), 5 days (fraction); higher = more cells survive
BAY61-3606 + Vorinostat = compound: COC1=C(C=C(C=C1)C2=CC3=NC=CN3C(=N2)NC4=C(C=CC=N4)C(=O)N)OC [BAY61-3606] + O=C(CCCCCCC(=O)Nc1ccccc1)NO [Vorinostat] (partner 1 µM)
Method in brief: (§1)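 Relative viability equals treated-well nuclei counts divided by vehicle-well nuclei counts. Counts came from 4× images of lung cancer cell lines grown in 1536-well plates for 5 days after pin-tool dosing on the day after seeding. Dosing used one drug alone or a fixed anchor-drug dose plus five library-drug doses (not always all listed) in √10 steps, and values are medians of duplicate plates.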

Doxorubicin + Tozasertib = compound: COc1cccc2c1C(=O)c1c(O)c3c(c(O)c1C2=O)C[C@@](O)(C(=O)CO)C[C@@H]3O[C@H]1C[C@H](N)[C@H](O)[C@H](C)O1 [Doxorubicin] + Cc1cc(Nc2cc(N3CCN(C)CC3)nc(Sc3ccc(NC(=O)C4CC4)cc3)n2)n[nH]1 [Tozasertib] (partner 0.1 µM)
Method in brief: as §1

Doxorubicin + Olaparib = compound: COc1cccc2c1C(=O)c1c(O)c3c(c(O)c1C2=O)C[C@@](O)(C(=O)CO)C[C@@H]3O[C@H]1C[C@H](N)[C@H](O)[C@H](C)O1 [Doxorubicin] + O=C(c1cc(Cc2n[nH]c(=O)c3ccccc23)ccc1F)N1CCN(C(=O)C2CC2)CC1 [Olaparib] (partner 8 µM)
Method in brief: as §1

Doxorubicin + Luminespib = compound: COc1cccc2c1C(=O)c1c(O)c3c(c(O)c1C2=O)C[C@@](O)(C(=O)CO)C[C@@H]3O[C@H]1C[C@H](N)[C@H](O)[C@H](C)O1 [Doxorubicin] + CCNC(=O)c1noc(-c2cc(C(C)C)c(O)cc2O)c1-c1ccc(CN2CCOCC2)cc1 [Luminespib] (partner 0.01 µM)
Method in brief: as §1

## NCI-H1793
BAY61-3606 + Vorinostat; first compound 0.02 µM
  relative viability: 0.842
BAY61-3606 + Vorinostat; first compound 0.06325 µM
  relative viability: 0.83
BAY61-3606 + Vorinostat; first compound 0.2 µM
  relative viability: 0.684
BAY61-3606 + Vorinostat; first compound 0.6325 µM
  relative viability: 1.04
BAY61-3606 + Vorinostat; first compound 2 µM
  relative viability: 0.989
Doxorubicin + Tozasertib; first compound 0.003162 µM
  relative viability: 0.403
Doxorubicin + Tozasertib; first compound 0.01 µM
  relative viability: 0.348
Doxorubicin + Tozasertib; first compound 0.03162 µM
  relative viability: 0.286
Doxorubicin + Tozasertib; first compound 0.1 µM
  relative viability: 0.358
Doxorubicin + Olaparib; first compound 0.003162 µM
  relative viability: 0.93
Doxorubicin + Olaparib; first compound 0.01 µM
  relative viability: 0.759
Doxorubicin + Olaparib; first compound 0.03162 µM
  relative viability: 0.566
Doxorubicin + Olaparib; first compound 0.1 µM
  relative viability: 0.88
Doxorubicin + Luminespib; first compound 0.003162 µM
  relative viability: 0.228
Doxorubicin + Luminespib; first compound 0.01 µM
  relative viability: 0.289
Doxorubicin + Luminespib; first compound 0.03162 µM
  relative viability: 0.159
Doxorubicin + Luminespib; first compound 0.1 µM
  relative viability: 0.263

## NCI-H596
BAY61-3606 + Vorinostat; first compound 0.02 µM
  relative viability: 0.726
BAY61-3606 + Vorinostat; first compound 0.06325 µM
  relative viability: 0.568
BAY61-3606 + Vorinostat; first compound 0.2 µM
  relative viability: 0.514
BAY61-3606 + Vorinostat; first compound 0.6325 µM
  relative viability: 0.771
BAY61-3606 + Vorinostat; first compound 2 µM
  relative viability: 0.686
Doxorubicin + Tozasertib; first compound 0.001 µM
  relative viability: 0.857
Doxorubicin + Tozasertib; first compound 0.003162 µM
  relative viability: 1.08
Doxorubicin + Tozasertib; first compound 0.01 µM
  relative viability: 0.943
Doxorubicin + Tozasertib; first compound 0.03162 µM
  relative viability: 0.806
Doxorubicin + Tozasertib; first compound 0.1 µM
  relative viability: 0.859
Doxorubicin + Olaparib; first compound 0.001 µM
  relative viability: 0.593
Doxorubicin + Olaparib; first compound 0.003162 µM
  relative viability: 0.667
Doxorubicin + Olaparib; first compound 0.01 µM
  relative viability: 0.685
Doxorubicin + Olaparib; first compound 0.03162 µM
  relative viability: 0.647
Doxorubicin + Olaparib; first compound 0.1 µM
  relative viability: 0.651
Doxorubicin + Luminespib; first compound 0.001 µM
  relative viability: 0.933
Doxorubicin + Luminespib; first compound 0.003162 µM
  relative viability: 1.21
Doxorubicin + Luminespib; first compound 0.01 µM
  relative viability: 0.838
Doxorubicin + Luminespib; first compound 0.03162 µM
  relative viability: 0.821
Doxorubicin + Luminespib; first compound 0.1 µM
  relative viability: 1.02

## PC-3 [JPC-3]
BAY61-3606 + Vorinostat; first compound 0.02 µM
  relative viability: 0.849
BAY61-3606 + Vorinostat; first compound 0.06325 µM
  relative viability: 0.668
BAY61-3606 + Vorinostat; first compound 0.2 µM
  relative viability: 1.04
BAY61-3606 + Vorinostat; first compound 0.6325 µM
  relative viability: 0.834
BAY61-3606 + Vorinostat; first compound 2 µM
  relative viability: 0.789
Doxorubicin + Tozasertib; first compound 0.001 µM
  relative viability: 0.887
Doxorubicin + Tozasertib; first compound 0.003162 µM
  relative viability: 0.888
Doxorubicin + Tozasertib; first compound 0.01 µM
  relative viability: 0.915
Doxorubicin + Tozasertib; first compound 0.03162 µM
  relative viability: 0.866
Doxorubicin + Tozasertib; first compound 0.1 µM
  relative viability: 0.856
Doxorubicin + Olaparib; first compound 0.001 µM
  relative viability: 1.04
Doxorubicin + Olaparib; first compound 0.003162 µM
  relative viability: 0.944
Doxorubicin + Olaparib; first compound 0.01 µM
  relative viability: 1.17
Doxorubicin + Olaparib; first compound 0.03162 µM
  relative viability: 0.897
Doxorubicin + Olaparib; first compound 0.1 µM
  relative viability: 0.825
Doxorubicin + Luminespib; first compound 0.001 µM
  relative viability: 0.661
Doxorubicin + Luminespib; first compound 0.003162 µM
  relative viability: 0.748
Doxorubicin + Luminespib; first compound 0.01 µM
  relative viability: 0.683
Doxorubicin + Luminespib; first compound 0.03162 µM
  relative viability: 0.714
Doxorubicin + Luminespib; first compound 0.1 µM
  relative viability: 0.615

## HCC-366
BAY61-3606 + Vorinostat; first compound 0.02 µM
  relative viability: 0.383
BAY61-3606 + Vorinostat; first compound 0.06325 µM
  relative viability: 0.385
BAY61-3606 + Vorinostat; first compound 0.2 µM
  relative viability: 0.175
BAY61-3606 + Vorinostat; first compound 0.6325 µM
  relative viability: 0.345
BAY61-3606 + Vorinostat; first compound 2 µM
  relative viability: 0.244
Doxorubicin + Tozasertib; first compound 0.003162 µM
  relative viability: 0.156
Doxorubicin + Tozasertib; first compound 0.01 µM
  relative viability: 0.179
Doxorubicin + Tozasertib; first compound 0.03162 µM
  relative viability: 0.106
Doxorubicin + Tozasertib; first compound 0.1 µM
  relative viability: 0.158
Doxorubicin + Olaparib; first compound 0.001 µM
  relative viability: 0.33
Doxorubicin + Olaparib; first compound 0.003162 µM
  relative viability: 0.348
Doxorubicin + Olaparib; first compound 0.01 µM
  relative viability: 0.361
Doxorubicin + Olaparib; first compound 0.03162 µM
  relative viability: 0.209
Doxorubicin + Olaparib; first compound 0.1 µM
  relative viability: 0.25

## NCI-H1623
Doxorubicin + Tozasertib; first compound 0.001 µM
  relative viability: 0.489
Doxorubicin + Tozasertib; first compound 0.003162 µM
  relative viability: 0.426
Doxorubicin + Tozasertib; first compound 0.01 µM
  relative viability: 0.417
Doxorubicin + Tozasertib; first compound 0.03162 µM
  relative viability: 0.39
Doxorubicin + Tozasertib; first compound 0.1 µM
  relative viability: 0.445
Doxorubicin + Luminespib; first compound 0.001 µM
  relative viability: 0.394
Doxorubicin + Luminespib; first compound 0.003162 µM
  relative viability: 0.478
Doxorubicin + Luminespib; first compound 0.01 µM
  relative viability: 0.508
Doxorubicin + Luminespib; first compound 0.03162 µM
  relative viability: 0.374
Doxorubicin + Luminespib; first compound 0.1 µM
  relative viability: 0.487

## Calu-6
Doxorubicin + Olaparib; first compound 0.001 µM
  relative viability: 0.554
Doxorubicin + Olaparib; first compound 0.003162 µM
  relative viability: 0.536
Doxorubicin + Olaparib; first compound 0.01 µM
  relative viability: 0.457
Doxorubicin + Olaparib; first compound 0.03162 µM
  relative viability: 0.298
Doxorubicin + Olaparib; first compound 0.1 µM
  relative viability: 0.197

## LCLC-103H
BAY61-3606 + Vorinostat; first compound 0.02 µM
  relative viability: 0.782
BAY61-3606 + Vorinostat; first compound 0.06325 µM
  relative viability: 0.716
BAY61-3606 + Vorinostat; first compound 0.2 µM
  relative viability: 0.724
BAY61-3606 + Vorinostat; first compound 0.6325 µM
  relative viability: 0.791
BAY61-3606 + Vorinostat; first compound 2 µM
  relative viability: 0.789
Doxorubicin + Tozasertib; first compound 0.001 µM
  relative viability: 0.531
Doxorubicin + Tozasertib; first compound 0.003162 µM
  relative viability: 0.411
Doxorubicin + Tozasertib; first compound 0.01 µM
  relative viability: 0.465
Doxorubicin + Tozasertib; first compound 0.03162 µM
  relative viability: 0.414
Doxorubicin + Tozasertib; first compound 0.1 µM
  relative viability: 0.529
Doxorubicin + Olaparib; first compound 0.001 µM
  relative viability: 0.726
Doxorubicin + Olaparib; first compound 0.003162 µM
  relative viability: 0.82
Doxorubicin + Olaparib; first compound 0.01 µM
  relative viability: 0.726
Doxorubicin + Olaparib; first compound 0.03162 µM
  relative viability: 0.799
Doxorubicin + Olaparib; first compound 0.1 µM
  relative viability: 0.769
Doxorubicin + Luminespib; first compound 0.001 µM
  relative viability: 0.941
Doxorubicin + Luminespib; first compound 0.003162 µM
  relative viability: 1.06
Doxorubicin + Luminespib; first compound 0.01 µM
  relative viability: 0.949
Doxorubicin + Luminespib; first compound 0.03162 µM
  relative viability: 0.931
Doxorubicin + Luminespib; first compound 0.1 µM
  relative viability: 0.864

## CAL-12T
BAY61-3606 + Vorinostat; first compound 0.02 µM
  relative viability: 0.827
BAY61-3606 + Vorinostat; first compound 0.06325 µM
  relative viability: 0.859
BAY61-3606 + Vorinostat; first compound 0.2 µM
  relative viability: 0.725
BAY61-3606 + Vorinostat; first compound 0.6325 µM
  relative viability: 0.81
BAY61-3606 + Vorinostat; first compound 2 µM
  relative viability: 0.576
Doxorubicin + Tozasertib; first compound 0.001 µM
  relative viability: 0.339
Doxorubicin + Tozasertib; first compound 0.003162 µM
  relative viability: 0.283
Doxorubicin + Tozasertib; first compound 0.01 µM
  relative viability: 0.257
Doxorubicin + Tozasertib; first compound 0.03162 µM
  relative viability: 0.207
Doxorubicin + Tozasertib; first compound 0.1 µM
  relative viability: 0.136
Doxorubicin + Olaparib; first compound 0.001 µM
  relative viability: 0.7
Doxorubicin + Olaparib; first compound 0.003162 µM
  relative viability: 0.668
Doxorubicin + Olaparib; first compound 0.01 µM
  relative viability: 0.559
Doxorubicin + Olaparib; first compound 0.03162 µM
  relative viability: 0.212
Doxorubicin + Olaparib; first compound 0.1 µM
  relative viability: 0.191
Doxorubicin + Luminespib; first compound 0.001 µM
  relative viability: 0.523
Doxorubicin + Luminespib; first compound 0.003162 µM
  relative viability: 0.394
Doxorubicin + Luminespib; first compound 0.01 µM
  relative viability: 0.555
Doxorubicin + Luminespib; first compound 0.03162 µM
  relative viability: 0.289
Doxorubicin + Luminespib; first compound 0.1 µM
  relative viability: 0.239

## NCI-H23
BAY61-3606 + Vorinostat; first compound 0.02 µM
  relative viability: 0.542
BAY61-3606 + Vorinostat; first compound 0.06325 µM
  relative viability: 0.701
BAY61-3606 + Vorinostat; first compound 0.2 µM
  relative viability: 0.53
BAY61-3606 + Vorinostat; first compound 0.6325 µM
  relative viability: 0.553
BAY61-3606 + Vorinostat; first compound 2 µM
  relative viability: 0.501
Doxorubicin + Tozasertib; first compound 0.003162 µM
  relative viability: 0.452
Doxorubicin + Tozasertib; first compound 0.01 µM
  relative viability: 0.362
Doxorubicin + Tozasertib; first compound 0.03162 µM
  relative viability: 0.389
Doxorubicin + Tozasertib; first compound 0.1 µM
  relative viability: 0.397
Doxorubicin + Olaparib; first compound 0.001 µM
  relative viability: 0.356
Doxorubicin + Olaparib; first compound 0.003162 µM
  relative viability: 0.373
Doxorubicin + Olaparib; first compound 0.01 µM
  relative viability: 0.293
Doxorubicin + Olaparib; first compound 0.03162 µM
  relative viability: 0.334
Doxorubicin + Olaparib; first compound 0.1 µM
  relative viability: 0.32
Doxorubicin + Luminespib; first compound 0.003162 µM
  relative viability: 0.221
Doxorubicin + Luminespib; first compound 0.01 µM
  relative viability: 0.235
Doxorubicin + Luminespib; first compound 0.03162 µM
  relative viability: 0.18
Doxorubicin + Luminespib; first compound 0.1 µM
  relative viability: 0.23
